What was measured:
[1] = DRUGMATRIX: ATPase, Na+/K+ enzyme inhibition (substrate: ATP); type: tissue-based, Sus scrofa, Heart; conditions: Not Active = under 50% inhibition at 10 µM
[2] = target: Beta-3 adrenergic receptor (Homo sapiens, UniProt P13945); assay: DRUGMATRIX: Adrenergic beta3 radioligand binding (ligand: [125I] Cyanopindolol); type: cell membranes, Membrane; conditions: hek293; Not Active = under 50% inhibition at 10 µM
[3] = DRUGMATRIX: Imidazoline I2, Central radioligand binding (ligand: [3H] Idazoxan); type: cell membranes, Rattus norvegicus, Wistar, Cerebral cortex, Membrane; conditions: Not Active = under 50% inhibition at 10 µM
[4] = DRUGMATRIX: Potassium Channel [KATP] radioligand binding (ligand: [3H] Glyburide); type: cell membranes, Membrane; conditions: hit-t15; Not Active = under 50% inhibition at 10 µM
[5] = target: T1, Vasoactive intestinal polypeptide receptor 1 (Homo sapiens, UniProt P32241); type: cell membranes, Membrane; conditions: ht-29; also: in other assays of this panel Not Active means under 50% inhibition at 10 µM
T1 sequence (P32241 whole entry): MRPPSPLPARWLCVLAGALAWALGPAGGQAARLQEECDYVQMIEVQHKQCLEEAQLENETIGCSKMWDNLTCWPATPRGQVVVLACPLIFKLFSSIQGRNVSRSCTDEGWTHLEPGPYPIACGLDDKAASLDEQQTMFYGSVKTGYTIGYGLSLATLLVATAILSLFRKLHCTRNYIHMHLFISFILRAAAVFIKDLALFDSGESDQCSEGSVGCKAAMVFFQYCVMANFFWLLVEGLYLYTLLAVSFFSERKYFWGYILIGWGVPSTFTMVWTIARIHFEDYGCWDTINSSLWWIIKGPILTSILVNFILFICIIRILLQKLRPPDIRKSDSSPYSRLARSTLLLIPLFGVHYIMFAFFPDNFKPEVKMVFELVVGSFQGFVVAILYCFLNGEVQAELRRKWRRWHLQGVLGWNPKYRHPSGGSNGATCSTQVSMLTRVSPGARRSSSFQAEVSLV

[6] = target: Epidermal growth factor receptor (Homo sapiens, UniProt P00533); assay: DRUGMATRIX: Protein Tyrosine Kinase, EGF Receptor enzyme inhibition (substrate: Poly(Glu:Tyr)); type: cell-based, Insect cells; conditions: insect cells; Not Active = under 50% inhibition at 10 µM
[7] = target: Voltage-gated inwardly rectifying potassium channel KCNH2 (Homo sapiens, UniProt Q12809); conditions: hek293; also: in other assays of this panel Not Active means under 50% inhibition at 10 µM
Chain of Voltage-gated inwardly rectifying potassium channel KCNH2 (Q12809 whole entry): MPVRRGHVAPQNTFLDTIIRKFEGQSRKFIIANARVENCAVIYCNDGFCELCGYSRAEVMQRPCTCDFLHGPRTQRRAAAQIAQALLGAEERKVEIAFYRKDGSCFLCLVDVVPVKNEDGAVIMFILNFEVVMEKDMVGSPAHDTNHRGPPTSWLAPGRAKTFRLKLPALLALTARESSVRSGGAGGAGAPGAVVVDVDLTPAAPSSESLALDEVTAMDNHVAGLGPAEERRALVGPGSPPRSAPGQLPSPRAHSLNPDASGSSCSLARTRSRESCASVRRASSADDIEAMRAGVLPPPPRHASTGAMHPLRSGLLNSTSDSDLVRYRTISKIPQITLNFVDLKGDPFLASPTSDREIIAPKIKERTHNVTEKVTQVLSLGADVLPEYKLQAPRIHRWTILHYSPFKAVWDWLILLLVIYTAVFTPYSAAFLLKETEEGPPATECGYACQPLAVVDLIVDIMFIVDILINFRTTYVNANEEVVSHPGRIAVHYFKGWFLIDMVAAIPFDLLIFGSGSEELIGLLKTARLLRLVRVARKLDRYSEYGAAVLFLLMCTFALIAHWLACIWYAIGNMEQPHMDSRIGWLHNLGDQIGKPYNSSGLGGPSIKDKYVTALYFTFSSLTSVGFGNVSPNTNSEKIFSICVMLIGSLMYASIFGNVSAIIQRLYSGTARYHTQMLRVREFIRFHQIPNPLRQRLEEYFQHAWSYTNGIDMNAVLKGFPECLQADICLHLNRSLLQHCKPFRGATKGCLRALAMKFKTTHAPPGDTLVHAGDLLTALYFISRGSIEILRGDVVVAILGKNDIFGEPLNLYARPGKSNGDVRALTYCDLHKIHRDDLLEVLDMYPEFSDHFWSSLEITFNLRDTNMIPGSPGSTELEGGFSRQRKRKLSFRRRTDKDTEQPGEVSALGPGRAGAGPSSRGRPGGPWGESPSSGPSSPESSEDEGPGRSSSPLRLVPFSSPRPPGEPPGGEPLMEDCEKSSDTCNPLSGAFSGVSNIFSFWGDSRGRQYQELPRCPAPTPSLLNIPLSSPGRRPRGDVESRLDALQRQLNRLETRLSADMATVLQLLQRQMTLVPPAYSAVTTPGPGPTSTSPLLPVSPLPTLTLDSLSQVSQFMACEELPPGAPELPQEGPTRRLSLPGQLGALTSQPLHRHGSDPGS

Chain of Epidermal growth factor receptor (P00533 whole entry): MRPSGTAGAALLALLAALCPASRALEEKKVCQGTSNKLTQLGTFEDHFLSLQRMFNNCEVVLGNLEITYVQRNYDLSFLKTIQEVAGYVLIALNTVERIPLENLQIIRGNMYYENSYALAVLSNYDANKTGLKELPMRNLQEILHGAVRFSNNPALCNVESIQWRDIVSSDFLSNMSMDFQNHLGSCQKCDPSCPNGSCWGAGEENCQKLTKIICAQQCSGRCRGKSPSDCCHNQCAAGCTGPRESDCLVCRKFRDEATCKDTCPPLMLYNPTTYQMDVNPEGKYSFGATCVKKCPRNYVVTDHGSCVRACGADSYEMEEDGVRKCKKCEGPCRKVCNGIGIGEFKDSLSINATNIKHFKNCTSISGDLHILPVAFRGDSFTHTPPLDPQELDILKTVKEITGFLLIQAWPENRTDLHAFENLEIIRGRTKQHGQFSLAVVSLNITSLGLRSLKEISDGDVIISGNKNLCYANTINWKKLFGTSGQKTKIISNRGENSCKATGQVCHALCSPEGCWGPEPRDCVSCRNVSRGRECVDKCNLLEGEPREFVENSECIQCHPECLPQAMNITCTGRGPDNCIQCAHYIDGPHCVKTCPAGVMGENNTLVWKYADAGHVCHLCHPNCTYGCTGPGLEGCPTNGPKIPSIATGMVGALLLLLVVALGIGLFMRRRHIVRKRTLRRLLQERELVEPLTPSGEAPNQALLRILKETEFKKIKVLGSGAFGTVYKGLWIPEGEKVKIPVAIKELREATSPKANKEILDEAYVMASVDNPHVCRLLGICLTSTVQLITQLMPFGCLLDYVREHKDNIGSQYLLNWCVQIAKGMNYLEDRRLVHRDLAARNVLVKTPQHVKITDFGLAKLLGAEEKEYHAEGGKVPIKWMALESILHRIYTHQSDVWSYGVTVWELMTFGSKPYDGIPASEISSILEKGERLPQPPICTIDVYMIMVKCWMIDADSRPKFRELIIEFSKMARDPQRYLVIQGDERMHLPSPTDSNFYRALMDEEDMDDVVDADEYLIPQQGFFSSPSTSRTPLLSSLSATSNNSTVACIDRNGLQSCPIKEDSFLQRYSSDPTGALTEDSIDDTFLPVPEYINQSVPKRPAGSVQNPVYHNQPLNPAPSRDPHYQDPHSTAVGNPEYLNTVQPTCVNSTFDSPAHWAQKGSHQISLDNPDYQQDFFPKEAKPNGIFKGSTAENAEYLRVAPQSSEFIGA
Chain of Beta-3 adrenergic receptor (P13945 whole entry): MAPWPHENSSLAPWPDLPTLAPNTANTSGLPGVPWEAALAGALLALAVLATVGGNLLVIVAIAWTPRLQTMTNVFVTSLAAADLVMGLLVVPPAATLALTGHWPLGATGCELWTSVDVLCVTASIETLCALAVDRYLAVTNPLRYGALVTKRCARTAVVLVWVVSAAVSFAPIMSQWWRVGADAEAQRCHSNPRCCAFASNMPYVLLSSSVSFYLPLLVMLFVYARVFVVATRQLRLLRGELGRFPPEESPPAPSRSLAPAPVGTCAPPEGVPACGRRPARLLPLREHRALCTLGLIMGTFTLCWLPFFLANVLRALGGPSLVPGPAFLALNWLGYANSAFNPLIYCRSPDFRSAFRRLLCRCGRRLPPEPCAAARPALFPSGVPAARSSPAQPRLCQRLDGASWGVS

O=C(N[C@H](CO)[C@H](O)c1ccc([N+](=O)[O-])cc1)C(Cl)Cl [CHLORAMPHENICOL]
Not Active: IC50 [1] | Ki [1] | IC50 [2] | IC50 [3] | Ki [3] | IC50 [4] | Ki [4] | IC50 [5] | IC50 [6]

Cn1c(=O)c2c(ncn2CC2OCCO2)n(C)c1=O [DOXOFYLLINE]
Not Active: IC50 [1] | Ki [1] | IC50 [2] | IC50 [3] | Ki [3] | IC50 [4] | Ki [4] | IC50 [5] | IC50 [6] | IC50 [7] | Ki [7]

CCC1=C[C@@H]2CN(C1)Cc1c([nH]c3ccccc13)[C@@](C(=O)OC)(c1cc3c(cc1OC)N(C)[C@H]1[C@@](O)(C(=O)OC)[C@H](OC(C)=O)[C@]4(CC)C=CCN5CC[C@]31[C@@H]54)C2 [VINORELBINE]
Not Active: IC50 [1] | Ki [1] | IC50 [2] | IC50 [3] | Ki [3] | IC50 [4] | Ki [4] | IC50 [5] | IC50 [6] | IC50 [7] | Ki [7]

CC(C(=O)O)c1cccc(C(=O)c2ccccc2)c1 (stereo not drawn) [KETOPROFEN]
Not Active: IC50 [1] | Ki [1] | IC50 [2] | IC50 [3] | Ki [3] | IC50 [4] | Ki [4] | IC50 [5] | IC50 [6] | IC50 [7] | Ki [7]

O=c1ccc2ccccc2o1 [COUMARIN]
Not Active: IC50 [1] | Ki [1] | IC50 [2] | IC50 [3] | Ki [3] | IC50 [4] | Ki [4] | IC50 [5] | IC50 [6] | IC50 [7] | Ki [7]

CC1(C)O[C@@H]2C[C@H]3[C@@H]4C[C@H](F)C5=CC(=O)C=C[C@]5(C)[C@H]4[C@@H](O)C[C@]3(C)[C@]2(C(=O)CO)O1 [FLUNISOLIDE]
Not Active: IC50 [1] | Ki [1] | IC50 [2] | IC50 [3] | Ki [3] | IC50 [4] | Ki [4] | IC50 [5] | IC50 [6] | IC50 [7] | Ki [7]

CC1(C)O[C@@H]2C[C@H]3[C@@H]4C[C@H](F)C5=CC(=O)C=C[C@]5(C)[C@@]4(F)[C@@H](O)C[C@]3(C)[C@]2(C(=O)CO)O1 [FLUOCINOLONE ACETONIDE]
Not Active: IC50 [1] | Ki [1] | IC50 [2] | IC50 [3] | Ki [3] | IC50 [4] | Ki [4] | IC50 [5] | IC50 [6] | IC50 [7] | Ki [7]

N=C(Nc1ccccc1)Nc1ccccc1
Not Active: IC50 [1] | Ki [1] | IC50 [2] | IC50 [3] | Ki [3] | IC50 [4] | Ki [4] | IC50 [5] | IC50 [6]

CC[C@@H](CO)NCCN[C@@H](CC)CO [ETHAMBUTOL]
Not Active: IC50 [1] | Ki [1] | IC50 [2] | IC50 [3] | Ki [3] | IC50 [4] | Ki [4] | IC50 [5] | IC50 [6] | IC50 [7] | Ki [7]

CN1C(=O)COc2c(C(=O)NC3CN4CCC3CC4)cc(Cl)cc21 (stereo not drawn) [AZASETRON]
Not Active: IC50 [1] | Ki [1] | IC50 [2] | IC50 [3] | Ki [3] | IC50 [4] | Ki [4] | IC50 [5] | IC50 [6] | IC50 [7] | Ki [7]

O=NN(CCCl)C(=O)NCCCl [CARMUSTINE]
Not Active: IC50 [1] | Ki [1] | IC50 [2] | IC50 [3] | Ki [3] | IC50 [4] | Ki [4] | IC50 [5] | IC50 [6] | IC50 [7] | Ki [7]

O=C(C1CCCCC1)N1CC(=O)N2CCc3ccccc3C2C1 (stereo not drawn) [PRAZIQUANTEL]
Not Active: IC50 [1] | Ki [1] | IC50 [2] | IC50 [3] | Ki [3] | IC50 [4] | Ki [4] | IC50 [5] | IC50 [6] | IC50 [7] | Ki [7]

C[C@]12CC[C@@H]3c4ccc(OC(=O)c5ccccc5)cc4CC[C@H]3[C@@H]1CC[C@@H]2O [ESTRADIOL BENZOATE]
Not Active: IC50 [1] | Ki [1] | IC50 [2] | IC50 [3] | Ki [3] | IC50 [4] | Ki [4] | IC50 [5] | IC50 [6] | IC50 [7] | Ki [7]

C[N+](C)(C)CCO.[Cl-] [CHOLINE CHLORIDE]
Not Active: IC50 [1] | Ki [1] | IC50 [2] | IC50 [3] | Ki [3] | IC50 [4] | Ki [4] | IC50 [5] | IC50 [6] | IC50 [7] | Ki [7]

NC(=O)NO [HYDROXYUREA]
Not Active: IC50 [1] | Ki [1] | IC50 [2] | IC50 [3] | Ki [3] | IC50 [4] | Ki [4] | IC50 [5] | IC50 [6] | IC50 [7] | Ki [7]

C[C@@]12C(=O)OC(=O)[C@]1(C)[C@H]1CC[C@@H]2O1 [CANTHARIDIN]
Not Active: IC50 [1] | Ki [1] | IC50 [2] | IC50 [3] | Ki [3] | IC50 [4] | Ki [4] | IC50 [5] | IC50 [6] | IC50 [7] | Ki [7]

O=S(=O)([O-])CCS.[Na+] [MESNA]
Not Active: IC50 [1] | Ki [1] | IC50 [2] | IC50 [3] | Ki [3] | IC50 [4] | Ki [4] | IC50 [5] | IC50 [6] | IC50 [7] | Ki [7]

CCN[C@@H]1C[C@H](N)[C@@H](O[C@H]2OC(CN)=CC[C@H]2N)[C@H](O)[C@H]1O[C@H]1OC[C@](C)(O)[C@H](NC)[C@H]1O [NETILMICIN]
Not Active: IC50 [1] | Ki [1] | IC50 [2] | IC50 [3] | Ki [3] | IC50 [4] | Ki [4] | IC50 [5] | IC50 [6] | IC50 [7] | Ki [7]

C/C=C/C[C@@H](C)[C@@H](O)[C@H]1C(=O)N[C@@H](CC)C(=O)N(C)CC(=O)N(C)[C@@H](CC(C)C)C(=O)N[C@@H](C(C)C)C(=O)N(C)[C@@H](CC(C)C)C(=O)N[C@@H](C)C(=O)N[C@H](C)C(=O)N(C)[C@@H](CC(C)C)C(=O)N(C)[C@@H](CC(C)C)C(=O)N(C)[C@@H](C(C)C)C(=O)N1C [CYCLOSPORINE]
Not Active: IC50 [1] | Ki [1] | IC50 [2] | IC50 [3] | Ki [3] | IC50 [4] | Ki [4] | IC50 [5] | IC50 [6]

COC(=O)C1=C(C)NC(C)=C(C(=O)OCC(C)C)C1c1ccccc1[N+](=O)[O-] (stereo not drawn) [NISOLDIPINE]
Not Active: IC50 [1] | Ki [1] | IC50 [2] | IC50 [3] | Ki [3] | IC50 [4] | Ki [4] | IC50 [5] | IC50 [6]

CCn1cc(C(=O)O)c(=O)c2cc(F)c(N3CCN(C)CC3)cc21 [PEFLOXACIN]
Not Active: IC50 [1] | Ki [1] | IC50 [2] | IC50 [3] | Ki [3] | IC50 [4] | Ki [4] | IC50 [5] | IC50 [6]

C[C@]12CC[C@@H]3c4ccc(O)cc4CC[C@H]3[C@@H]1CC[C@@H]2O [ESTRADIOL]
Not Active: IC50 [1] | Ki [1] | IC50 [2] | IC50 [3] | Ki [3] | IC50 [4] | Ki [4] | IC50 [5] | IC50 [6]

CC1=C(C(=O)O)N2C(=O)[C@@H](NC(=O)[C@H](N)c3ccccc3)[C@H]2SC1 [CEPHALEXIN ANHYDROUS]
Not Active: IC50 [1] | Ki [1] | IC50 [2] | IC50 [3] | Ki [3] | IC50 [4] | Ki [4] | IC50 [5] | IC50 [6]

COc1ccc2cc([C@H](C)C(=O)O)ccc2c1 [NAPROXEN]
Not Active: IC50 [1] | Ki [1] | IC50 [2] | IC50 [3] | Ki [3] | IC50 [4] | Ki [4] | IC50 [5] | IC50 [6]

Source: ChEMBL document CHEMBL1909046, “DrugMatrix in vitro pharmacology data”
